Results on 10 molecules are retold here after PubChem BioAssay (NCI).

Among the test systems are MALME-3M melanoma; IGROV1 ovarian; SF-295 CNS; A549 NSCLC; OVCAR-3 ovarian; SN12C renal; UACC-257 melanoma; LOX IMVI melanoma; MDA-MB-435; SF-268 CNS.
What all share (assay): growth of human tumour cells (NCI), 48 h

Values joined by “and” are separate entries in the source; they are usually repeats but may differ in a detail not shown here. Equal entries are not always repeated.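 How tested: cells in 96-well plates exposed to compound for 48 hours at five concentrations. GI50 = concentration required for 50% inhibition of growth. TGI denotes the concentration required for complete inhibition of growth.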

For `CN(CCCN(C)CCC1CCCCC1)CCC1CCCCC1`, the GI50 in the test with MALME-3M melanoma is 1.39 µM; in the test with IGROV1 ovarian, 1.09 µM; in the test on SF-295 CNS it was 1.46 µM; in the test on A549 NSCLC it was 9.8 µM; in the test on OVCAR-3 ovarian, 3.95 µM; with SN12C renal, 6.49 µM. Besides, the GI50 in the test with UACC-257 melanoma is 0.291 µM; in the test on LOX IMVI melanoma, 1.61 µM; in the test with MDA-MB-435, 0.755 µM; in the test with SF-268 CNS, 5.14 µM. In addition, the TGI with MALME-3M melanoma amounted to 3.03 µM; in the test on IGROV1 ovarian, 5.54 µM; in the test with SF-295 CNS, 3.02 µM; with A549 NSCLC, 24.1 µM; in the test on OVCAR-3 ovarian, 15 µM; in the test on SN12C renal, 20.6 µM. Also, the TGI came out at 0.876 µM in the test with UACC-257 melanoma, 3.55 µM in the test on LOX IMVI melanoma, 2.27 µM in the test with MDA-MB-435 and 18.9 µM in the test with SF-268 CNS.

Take `O=C1COCCN1c1ccc(NCc2cn(C(=O)c3ccc(Cl)cc3)c3ccccc23)cc1`: the GI50 with MALME-3M melanoma was 7.96 µM; in the test with IGROV1 ovarian, 0.252 µM; in the test on SF-295 CNS, 1.83 µM; in the test with A549 NSCLC, 3.36 µM; with OVCAR-3 ovarian, 1.21 µM; in the test with SN12C renal, 4.96 µM. Further, the GI50 with UACC-257 melanoma was 0.276 µM; with LOX IMVI melanoma it was 5.53 µM; in the test with MDA-MB-435, 16.4 µM; with SF-268 CNS, 13.4 µM. Further, the TGI in the test on MALME-3M melanoma is 24.9 µM; in the test on IGROV1 ovarian, 8.51 µM; in the test with SF-295 CNS, 33.5 µM; with A549 NSCLC, > 100 µM; in the test on OVCAR-3 ovarian, 12.5 µM; with SN12C renal, 69.3 µM. Besides, the TGI with UACC-257 melanoma was found to be 1.7 µM; with LOX IMVI melanoma, 19.8 µM; with MDA-MB-435, 50.1 µM; in the test with SF-268 CNS it was 95.1 µM.

Turning to `O=C1NC(c2ccccc2)N=C2Oc3ccccc3C=C12` (stereo not drawn), the TGI in the test on MALME-3M melanoma is > 100 µM; in the test on IGROV1 ovarian it was > 74.4 µM; in the test on SF-295 CNS, > 100 µM; in the test with A549 NSCLC, > 100 µM; in the test with OVCAR-3 ovarian, > 100 µM; in the test on SN12C renal, > 100 µM. Further, the TGI is > 100 µM with UACC-257 melanoma, > 31.6 µM in the test on LOX IMVI melanoma, 0.138 µM with MDA-MB-435 and > 84.7 µM in the test with SF-268 CNS.

In the case of `CC(C)=CCc1cc(C2COc3cc4c(c(O)c3C2=O)C=CC(C)(C)O4)c(O)cc1O` (stereo not drawn), the TGI with MALME-3M melanoma was 28.3 µM; in the test on IGROV1 ovarian it was 36.4 µM; in the test with SF-295 CNS, 43.5 µM; in the test on A549 NSCLC it was 27.9 µM; in the test with OVCAR-3 ovarian, 27.3 µM; with SN12C renal, 26.3 µM. For the same molecule, the TGI was 27.4 µM in the test on UACC-257 melanoma, 43.4 µM in the test with LOX IMVI melanoma, 33.4 µM in the test with MDA-MB-435 and 30.5 µM in the test with SF-268 CNS.

Turning to `COC(=O)Nc1nc2ccc(S(=O)(=O)c3ccc(NC(=O)Nc4cc(C(F)(F)F)ccc4F)cc3)cc2[nH]1`, the GI50 in the test with MALME-3M melanoma, in the test with IGROV1 ovarian, in the test with SF-295 CNS, with A549 NSCLC, in the test with OVCAR-3 ovarian and with SN12C renal was > 25 µM in each case. Besides, the GI50 with UACC-257 melanoma, with LOX IMVI melanoma, in the test on MDA-MB-435 and in the test on SF-268 CNS was > 25 µM in each case. Moreover, the TGI with MALME-3M melanoma, in the test on IGROV1 ovarian, in the test on SF-295 CNS, in the test on A549 NSCLC, with OVCAR-3 ovarian and in the test on SN12C renal was > 25 µM in each case. Further, the TGI in the test with UACC-257 melanoma, in the test on LOX IMVI melanoma, with MDA-MB-435 and in the test on SF-268 CNS was > 25 µM throughout.

Regarding `c1ccc2c(CN3CCC(C4CCN(Cc5cccc6ccccc56)CC4)CC3)cccc2c1`, the TGI is 4.87 µM and 14.6 µM with MALME-3M melanoma; > 100 µM with IGROV1 ovarian; 19.4 µM and 14.2 µM in the test with SF-295 CNS; > 100 µM in the test on A549 NSCLC; > 100 µM in the test on OVCAR-3 ovarian; > 100 µM with SN12C renal. In addition, the TGI is 4.25 µM and 11.9 µM in the test with UACC-257 melanoma; 16.8 µM and 23.4 µM with LOX IMVI melanoma; 11.4 µM in the test with MDA-MB-435; 28.4 µM and > 100 µM with SF-268 CNS. Also, the GI50 with IGROV1 ovarian was 32.2 µM and > 79.4 µM; in the test on LOX IMVI melanoma it was 4.33 µM and 10.2 µM; with SF-268 CNS it was 8.99 µM and 78.7 µM.

With `CN(C)c1ncnc2c1ccn2C1OC(CO)C(O)C1O` (stereo not drawn), the GI50 in the test with MALME-3M melanoma is 92.6 µM; in the test on IGROV1 ovarian, 0.237 µM; with SF-295 CNS, 6.48 µM; in the test with A549 NSCLC it was 13.6 µM; in the test on OVCAR-3 ovarian, 0.938 µM; in the test on SN12C renal, 2.62 µM. For the same molecule, the GI50 is > 100 µM in the test on UACC-257 melanoma, 0.559 µM with LOX IMVI melanoma, 2.55 µM in the test with MDA-MB-435 and 3.63 µM with SF-268 CNS. Moreover, the TGI is > 100 µM in the test with MALME-3M melanoma; 4.22 µM in the test on IGROV1 ovarian; > 100 µM in the test with SF-295 CNS; > 100 µM with A549 NSCLC; > 34.6 µM with OVCAR-3 ovarian; > 100 µM in the test with SN12C renal. In addition, the TGI in the test with UACC-257 melanoma is > 100 µM; with LOX IMVI melanoma it was 12.2 µM; in the test on MDA-MB-435, > 29.1 µM; with SF-268 CNS, > 100 µM.

In the case of `COc1cc2c(cc1OCCCCCn1c3ccccc3c3ccccc31)N=C[C@@H]1CCCN1C2=O`, the GI50 in the test with MALME-3M melanoma was 2.2 µM; with IGROV1 ovarian, 2.08 µM; in the test with SF-295 CNS, 2.15 µM; in the test on A549 NSCLC, 1.57 µM; in the test on OVCAR-3 ovarian, 1.88 µM; with SN12C renal, 1.94 µM. Further, the GI50 in the test with UACC-257 melanoma was 2.29 µM; in the test on LOX IMVI melanoma, 2.01 µM; in the test with MDA-MB-435, 1.69 µM; in the test on SF-268 CNS it was 1.91 µM. Moreover, the TGI amounted to 4.72 µM with MALME-3M melanoma; 4.69 µM with IGROV1 ovarian; 6.55 µM in the test with SF-295 CNS; 3.02 µM in the test on A549 NSCLC; 3.57 µM in the test on OVCAR-3 ovarian; 4.16 µM in the test with SN12C renal. Moreover, the TGI turned out to be 5.85 µM with UACC-257 melanoma, 4.88 µM in the test on LOX IMVI melanoma, 3.29 µM in the test on MDA-MB-435 and 3.74 µM in the test with SF-268 CNS.

Consider `COc1cc2nncc(SCc3ccc(Cl)c(Cl)c3)c2cc1OC`, for which the TGI in the test with MALME-3M melanoma, in the test on IGROV1 ovarian, in the test on SF-295 CNS, with A549 NSCLC, with OVCAR-3 ovarian and in the test on SN12C renal was > 100 µM in each case. In addition, the TGI in the test with UACC-257 melanoma, in the test on LOX IMVI melanoma, in the test on MDA-MB-435 and in the test with SF-268 CNS was > 100 µM throughout.

For `NS(=O)(=O)c1ccc(N2N=C(c3cccs3)CC2c2ccccc2O)cc1` (stereo not drawn), the GI50 in the test with MALME-3M melanoma is 4.81 µM; in the test with IGROV1 ovarian, 1.6 µM; in the test on SF-295 CNS, 0.829 µM; with A549 NSCLC, 1.16 µM; in the test with OVCAR-3 ovarian, 0.933 µM; in the test on SN12C renal it was 1.2 µM. Moreover, the GI50 was 1.47 µM in the test on UACC-257 melanoma, 1.25 µM with LOX IMVI melanoma, 0.704 µM in the test with MDA-MB-435 and 1.16 µM in the test with SF-268 CNS. The TGI in the test on MALME-3M melanoma turned out to be 13.5 µM; in the test with IGROV1 ovarian it was 14.2 µM; with SF-295 CNS, 2.26 µM; in the test on A549 NSCLC, 7.06 µM; in the test with OVCAR-3 ovarian, 2.64 µM; in the test with SN12C renal, 4.78 µM. The TGI with UACC-257 melanoma was 7.97 µM; in the test on LOX IMVI melanoma it was 5.22 µM; with MDA-MB-435 it was 1.8 µM; in the test on SF-268 CNS, 4.48 µM.
